Experimental data from patent US12473284B2, “Small molecule inhibitors of ULK1” (Memorial Sloan Kettering Cancer Center, priority 2019, dated 2025).

Key:
[1] = biological target: ULK1/Atg13 kinase complex (Homo sapiens (Human), UniProt O75385); assay: In vitro kinase assay (Kinase-Glo Plus luminescence, MBP 1-20 peptide substrate); format: biochemical; conditions: recombinant His-tagged ULK1/Atg13, 75 min at room temperature; salt form as in Table 1
Protocol: In vitro kinase assays were performed as described below:
Recombinant His-tagged ULK1/Atg13 kinase complex was expressed in […] insect cells, and affinity-purified by Ni-NTA beads, aliquoted and stored at −80° C.
Compounds were dissolved in DMSO to make 10 mM stock solution, aliquoted and stored at −80° C.
1× kinase buffer was prepared: 20 mM Tris-HCl, pH7.5, 100 mM NaCl, 5 mM MgCl2, 0.5 mg/ml BSA, 5 mM DTT, 0.1% Tween-20.
For compound screening experiment, 1 μl of the 10 mM compound stock solution was added using P2.5 pipette into 99 μl 1×kinase buffer to make 100 μM working solution.
For compound titration experiment, 100 μM compound solution was further diluted (with 1×kinase buffer containing 1% DMSO) in a series manner.
30 mM MBP (Myelin basic protein) 1-20 peptide (sequence: […]; SEQ ID NO: 1) was prepared in 1× kinase buffer.
500 μM ATP was prepared in 1× kinase buffer.
Pre-incubation reactions were set up as shown in the Table below and pre-incubated for 10 min at room temperature.
4 μl of 500 μM ATP was added to the pre-incubation reaction (thus the final reaction volume is 20 μl) and incubated for 75 min at room temperature.
20 μl Kinase-Glo Plus (Promega) was added to the reaction (warmed to RT), mixed well and incubated at room temperature for 15 min.
20 μl reaction was pipetted into each well of a white 384-well plate.
the 384-well plate was subjected to brief centrifugation, and luminescence was read in a plate reader.
Calculated inhibition (%) was calculated as follows: […]

protein kinase CDK7 = protein kinase CDK7 (Homo sapiens (Human), UniProt P50613); assay: Inhibition of protein kinase CDK7; format: biochemical
MiaCaPa-2 cancer cells = assay: MiaCaPa-2 pancreatic ductal adenocarcinoma (PDAC) cell line xenograft mice model; format: in vivo; conditions: MSK-A170-PEAK2 10 mg/kg + trametinib 0.5 mg/kg, i.p., 6 days a week, 17 days, female athymic nude mice
Protocol: FIG. 1 illustrates the final tumor weights for four groups on mice in a MiaCaPa-2 cell line xenograft mouse model, where “Control” group mice were treated 6 days a week, i.p., for 17 days with dosing vehicle; “ULK1i” group mice were treated 6 days a week, i.p., for 17 days with a compound of the present technology, 10 mg/kg; “MEKi” group mice were treated 6 days a week, i.p., for 17 days with MEK1 inhibitor trametinib, 0.5 mg/kg; “ULK1i+MEKi” group mice were treated 6 days a week, i.p., for 17 days with a combination of the compound of the present technology (10 mg/kg) and trametinib (0.5 mg/kg), according to the working examples.
FIG. 2 provides the tumor volume over time for each group of the xenograft mouse model study that provided the data of FIG. 1, according to the working examples.
Female athymic nude (Foxn1^nu) mice were implanted with 2×10^6 MiaCaPa-2 cancer cells per animal subcutaneously at the right flank. […] The tumor volume was measured on 1, 3, 5, 7, 9, 11, 13, 15, and 17. […]

Chain of ULK1/Atg13 kinase complex (O75385 whole entry): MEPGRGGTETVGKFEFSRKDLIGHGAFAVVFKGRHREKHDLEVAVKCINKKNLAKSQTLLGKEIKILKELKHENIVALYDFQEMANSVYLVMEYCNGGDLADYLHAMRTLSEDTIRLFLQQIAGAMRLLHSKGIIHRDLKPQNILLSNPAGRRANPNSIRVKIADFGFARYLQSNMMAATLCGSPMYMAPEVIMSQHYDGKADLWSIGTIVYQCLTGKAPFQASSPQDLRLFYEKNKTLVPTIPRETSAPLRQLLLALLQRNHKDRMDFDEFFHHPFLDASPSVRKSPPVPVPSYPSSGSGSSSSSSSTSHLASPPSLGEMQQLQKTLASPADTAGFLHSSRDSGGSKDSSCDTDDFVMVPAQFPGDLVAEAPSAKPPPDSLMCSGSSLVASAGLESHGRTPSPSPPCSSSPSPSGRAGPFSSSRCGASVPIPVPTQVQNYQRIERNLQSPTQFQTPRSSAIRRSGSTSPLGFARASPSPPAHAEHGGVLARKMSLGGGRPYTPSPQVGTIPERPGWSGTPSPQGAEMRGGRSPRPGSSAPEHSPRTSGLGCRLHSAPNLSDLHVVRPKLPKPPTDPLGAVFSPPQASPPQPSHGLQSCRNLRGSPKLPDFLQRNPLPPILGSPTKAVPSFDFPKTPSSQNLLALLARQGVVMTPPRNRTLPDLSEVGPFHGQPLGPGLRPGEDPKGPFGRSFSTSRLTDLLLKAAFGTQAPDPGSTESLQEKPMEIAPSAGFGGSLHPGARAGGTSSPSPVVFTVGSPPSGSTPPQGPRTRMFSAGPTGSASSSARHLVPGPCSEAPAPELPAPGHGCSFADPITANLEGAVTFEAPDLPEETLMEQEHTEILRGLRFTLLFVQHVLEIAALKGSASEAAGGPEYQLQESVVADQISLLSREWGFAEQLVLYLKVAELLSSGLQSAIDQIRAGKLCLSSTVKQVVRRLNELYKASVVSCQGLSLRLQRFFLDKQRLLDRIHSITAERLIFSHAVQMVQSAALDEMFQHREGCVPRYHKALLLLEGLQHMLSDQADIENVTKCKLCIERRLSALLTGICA
Chain of ULK1/Atg13 kinase complex (O75143 whole entry partner): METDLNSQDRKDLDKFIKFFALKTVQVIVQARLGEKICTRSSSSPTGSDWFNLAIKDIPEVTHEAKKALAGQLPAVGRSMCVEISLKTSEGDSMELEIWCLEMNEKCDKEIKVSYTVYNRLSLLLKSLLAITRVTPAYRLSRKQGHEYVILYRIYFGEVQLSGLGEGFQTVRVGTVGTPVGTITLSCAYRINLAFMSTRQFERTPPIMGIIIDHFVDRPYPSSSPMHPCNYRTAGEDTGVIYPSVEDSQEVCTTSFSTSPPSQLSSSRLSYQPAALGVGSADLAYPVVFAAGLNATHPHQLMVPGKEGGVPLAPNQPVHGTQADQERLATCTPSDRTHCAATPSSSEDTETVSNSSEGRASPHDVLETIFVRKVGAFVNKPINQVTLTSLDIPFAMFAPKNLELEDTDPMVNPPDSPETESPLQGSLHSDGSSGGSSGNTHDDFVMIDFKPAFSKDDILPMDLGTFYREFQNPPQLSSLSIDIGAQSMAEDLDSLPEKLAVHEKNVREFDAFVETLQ
Chain of protein kinase CDK7 (P50613 whole entry): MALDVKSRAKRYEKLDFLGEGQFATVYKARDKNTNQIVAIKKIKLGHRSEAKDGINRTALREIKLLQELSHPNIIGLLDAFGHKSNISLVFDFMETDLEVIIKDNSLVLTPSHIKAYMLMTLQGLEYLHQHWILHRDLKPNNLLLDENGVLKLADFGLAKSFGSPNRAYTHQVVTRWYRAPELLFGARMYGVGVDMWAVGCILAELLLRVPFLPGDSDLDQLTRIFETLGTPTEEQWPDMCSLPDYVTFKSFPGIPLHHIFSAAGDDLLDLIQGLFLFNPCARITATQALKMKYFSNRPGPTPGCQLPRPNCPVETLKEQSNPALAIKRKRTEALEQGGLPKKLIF
Chain of protein kinase CDK7 (P51946 whole entry partner): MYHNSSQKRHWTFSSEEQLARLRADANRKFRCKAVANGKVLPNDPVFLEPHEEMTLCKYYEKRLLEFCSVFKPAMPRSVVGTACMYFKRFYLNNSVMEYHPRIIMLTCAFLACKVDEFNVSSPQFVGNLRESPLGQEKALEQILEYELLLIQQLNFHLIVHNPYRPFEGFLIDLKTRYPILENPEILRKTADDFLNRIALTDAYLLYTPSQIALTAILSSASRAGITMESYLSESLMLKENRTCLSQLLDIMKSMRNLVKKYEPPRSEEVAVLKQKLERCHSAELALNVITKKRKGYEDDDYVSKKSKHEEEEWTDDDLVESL
Chain of protein kinase CDK7 (P51948 whole entry partner): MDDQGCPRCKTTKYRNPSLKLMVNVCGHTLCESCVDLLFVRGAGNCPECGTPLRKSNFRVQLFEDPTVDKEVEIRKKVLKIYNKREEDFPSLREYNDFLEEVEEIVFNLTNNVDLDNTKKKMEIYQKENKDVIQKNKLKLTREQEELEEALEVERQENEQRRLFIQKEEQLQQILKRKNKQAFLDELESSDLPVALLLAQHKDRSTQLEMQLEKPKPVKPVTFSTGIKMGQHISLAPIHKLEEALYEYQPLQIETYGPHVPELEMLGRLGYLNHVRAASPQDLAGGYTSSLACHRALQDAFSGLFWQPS

IC50 [1] [nM]	inhibition of protein kinase CDK7 (potency) (protein kinase CDK7)	SMILES	tumor weight / tumor volume, combination with trametinib versus trametinib alone (MiaCaPa-2 cancer cells)
20.6	low nM potency	CC(N)C1CCC(C(=O)Cc2ccnc3[nH]c(-c4cccc(F)c4)cc23)CC1 (stereo not shown) [MSK-A191]	
38.9		CC(N)C1CCC(C(=O)Nc2ccnc3[nH]c(-c4ccc(F)cc4)cc23)CC1 (single isomer, unassigned) [MSK-A184_peak 2, (1r,4r)-4-(1-aminoethyl)-N-(2-(4-fluorophenyl)-1H-pyrrolo[2,3-b]pyridin-4-yl)cyclohexanecarboxamide]	
73		CC(N)C1CCC(C(=O)Nc2ccnc3[nH]c(-c4ncc[nH]4)cc23)CC1 (stereo not shown) [MSK-A157, (1r,4r)-N-(2-(1H-imidazol-2-yl)-1H-pyrrolo[2,3-b]pyridin-4-yl)-4-(1-aminoethyl)cyclohexanecarboxamide]	
15.5		CC(N)C1CCC(C(=O)Nc2ccnc3[nH]c(-c4ccc(F)cc4)cc23)CC1 (single isomer, unassigned) [MSK-A184_peak 1, (1r,4r)-4-(1-aminoethyl)-N-(2-(4-fluorophenyl)-1H-pyrrolo[2,3-b]pyridin-4-yl)cyclohexanecarboxamide]	
19.4		COc1ccc(-c2cc3c(CC(=O)C4CCC(C(C)N)CC4)ccnc3[nH]2)cc1 (stereo not shown) [MSK-A188]	
630		CC(N)C1CCC(C(=O)Nc2ccnc3[nH]c(-n4cccn4)cc23)CC1 (stereo not shown) [MSK-A173, (1r,4r)-N-(2-(1H-pyrazol-1-yl)-1H-pyrrolo[2,3-b]pyridin-4-yl)-4-(1-aminoethyl)cyclohexanecarboxamide]	
1450		CC(N)C1CCC(C(=O)Nc2ccnc3[nH]c(-c4nccn4C)cc23)CC1 (stereo not shown) [MSK-A171, (1r,4r)-4-(1-aminoethyl)-N-(2-(1-methyl-1H-imidazol-2-yl)-1H-pyrrolo[2,3-b]pyridin-4-yl)cyclohexanecarboxamide]	
29.2		CC(N)C1CCC(C(=O)Cc2ccnc3[nH]c(-c4cccc(C(F)(F)F)c4)cc23)CC1 (stereo not shown) [MSK-A194]	
156		CC(N)C1CCC(C(=O)Nc2ccnc3[nH]c(-c4ncco4)cc23)CC1 (stereo not shown) [MSK-A202]	
110		C[C@@H](N)C1CCC(C(=O)Nc2ccnc3[nH]c(-c4ccccn4)cc23)CC1 (stereo partly shown) [MSK-A172, (1r,4r)-4-(1-aminoethyl)-N-(2-(pyridin-2-yl)-1H-pyrrolo [2,3-b]pyridin-4-yl)cyclohexanecarboxamide]	
47		CC(N)C1CCC(C(=O)Nc2ccnc3[nH]c(-c4nccs4)cc23)CC1 (stereo not shown) [MSK-A178]	
20.2		Cc1cccc(-c2cc3c(CC(=O)C4CCC(C(C)N)CC4)ccnc3[nH]2)c1 (stereo not shown) [MSK-A192]	
23.6		CC(N)C1CCC(C(=O)Nc2ccnc3[nH]c(-c4ccsc4)cc23)CC1 (single isomer, unassigned) [MSK-A176-peak 2, (1r,4r)-4-(1-aminoethyl)-N-(2-(thiophen-3-yl)-1H-pyrrolo[2,3-b]pyridin-4-yl)cyclohexanecarboxamide]	
23.8		CC(N)C1CCC(C(=O)Nc2ccnc3[nH]c(-c4ccc5ccccc5c4)cc23)CC1 (stereo not shown) [MSK-A190]	
54		CC(N)C1CCC(C(=O)Nc2ccnc3[nH]c(-c4cccs4)cc23)CC1 (stereo not shown) [MSK-A177]	
26.3		CC(N)C1CCC(C(=O)Cc2ccnc3[nH]c(-c4cccc(C5CC5)c4)cc23)CC1 (stereo not shown) [MSK-A193]	
515		CC(N)C1CCC(C(=O)Nc2ccnc3[nH]c(-n4ccnc4)cc23)CC1 (stereo not shown) [MSK-A181, (1r,4r)-N-(2-(1H-imidazol-1-yl)-1H-pyrrolo[2,3-b]pyridin-4-yl)-4-(1-aminoethyl)cyclohexanecarboxamide]	
22.9		COC(=O)[C@@H](N)[C@H]1CC[C@H](C(=O)Nc2ccnc3[nH]c(-c4ccccc4)cc23)CC1 [MSK-A182, (S)-methyl 2-amino-2-((1r,4S)-4-((2-phenyl-1H-pyrrolo[2,3-b]pyridin-4-yl)carbamoyl)cyclo-hexyl)acetate]	
40.8		CC(N)C1CCC(C(=O)Nc2ccnc3[nH]c(-c4cccc(F)c4)cc23)CC1 (single isomer, unassigned) [MSK-A191_peak 1, (1r,4r)-4-(1-aminoethyl)-N-(2-(3-fluorophenyl)-1H-pyrrolo[2,3-b]pyridin-4-yl)cyclohexanecarboxamide]	
2200		C[C@@H](N)C1CCC(C(=O)Nc2ccnc3occc23)CC1 (stereo partly shown) [MSK-A091, (1r,4r)-4-(1-aminoethyl)-N-(furo[2,3-b]pyridin-4-yl)cyclohexanecarboxamide]	
185		COC(=O)[C@H](N)[C@H]1CC[C@H](C(=O)Nc2ccnc3[nH]c(-c4ccccc4)cc23)CC1 [MSK-A183, (R)-methyl 2-amino-2-((1r,4R)-4-((2-phenyl-1H-pyrrolo[2,3-b]pyridin-4-yl)carbamoyl)cyclo-hexyl)acetate]	
5	low nM potency	CC(N)C1CCC(C(=O)Nc2ccnc3[nH]c(-c4ccsc4)cc23)CC1 (stereo not shown) [MSK-A176]	
56.2		CC(N)C1CCC(C(=O)Nc2ccnc3[nH]c(-c4ccsc4)cc23)CC1 (single isomer, unassigned) [MSK-A176-peak 1, (1r,4r)-4-(1-aminoethyl)-N-(2-(thiophen-3-yl)-1H-pyrrolo[2,3-b]pyridin-4-yl)cyclohexanecarboxamide]	
59.1		CC(N)C1CCC(C(=O)Nc2ccnc3[nH]c(-c4cccc(F)c4)cc23)CC1 (single isomer, unassigned) [MSK-A191_peak 2, (1r,4r)-4-(1-aminoethyl)-N-(2-(3-fluorophenyl)-1H-pyrrolo[2,3-b]pyridin-4-yl)cyclohexanecarboxamide]	
18.9	low nM potency	CC(N)C1CCC(C(=O)Cc2ccnc3[nH]c(-c4ccc(F)cc4)cc23)CC1 (stereo not shown) [MSK-A184]	
18		C[C@@H](N)C1CCC(C(=O)Nc2ccnc3[nH]c(-c4ccccc4)cc23)CC1 (stereo partly shown) [MSK-A170, (1r,4r)-4-(1-aminoethyl)-N-(2-phenyl-1H-pyrrolo[2,3-b]pyridin-4-yl)cyclohexanecarboxamide]	
2380		CC(N)C1CCC(C(=O)Nc2ccnc3[nH]c(-c4ncccn4)cc23)CC1 (stereo not shown) [MSK-A180]	
109		CC(N)C1CCC(C(=O)Nc2ccnc3[nH]c(-c4cscn4)cc23)CC1 (stereo not shown) [MSK-A199]	
18.3	low nM potency	CC(N)C1CCC(C(=O)Cc2ccnc3[nH]c(-c4ccc(C#N)cc4)cc23)CC1 (stereo not shown) [MSK-A189]	
		C[C@@H](N)C1CCC(C(=O)Nc2ccnc3[nH]c(-c4ccccc4)cc23)CC1 (single isomer, unassigned) [MSK-A170-PEAK2]	significantly improved results
